Ends that are not written are not given here. Peptide text beside a SMILES is read from it. * marks the point of attachment. Ethyl(2-palmitoyloxy) = CCCCCCCCCCCCCCCC(=O)OCC*
Experiments:
[1] = biological target: T1, human CGRP receptor (CLR:RAMP1) (Homo sapiens, UniProt O60894+Q16602); assay: cAMP assay, antagonism of αCGRP at the human CGRP receptor in transfected Cos-7 cells; type: cell-based; settings: for pA2, CGRPr: non-lipidated analogues, single antagonist concentration 30 nM, agonist αCGRP, mean ± SEM of three independent experiments, SEM; for fold less potent compared to αCGRP8-37 at the CGRP receptor: from pA2 values at 30 nM
T1 construct: HA; myc; expressed in transfected cells; host or cells: Cos-7
T1 sequence (Q16602 23-461): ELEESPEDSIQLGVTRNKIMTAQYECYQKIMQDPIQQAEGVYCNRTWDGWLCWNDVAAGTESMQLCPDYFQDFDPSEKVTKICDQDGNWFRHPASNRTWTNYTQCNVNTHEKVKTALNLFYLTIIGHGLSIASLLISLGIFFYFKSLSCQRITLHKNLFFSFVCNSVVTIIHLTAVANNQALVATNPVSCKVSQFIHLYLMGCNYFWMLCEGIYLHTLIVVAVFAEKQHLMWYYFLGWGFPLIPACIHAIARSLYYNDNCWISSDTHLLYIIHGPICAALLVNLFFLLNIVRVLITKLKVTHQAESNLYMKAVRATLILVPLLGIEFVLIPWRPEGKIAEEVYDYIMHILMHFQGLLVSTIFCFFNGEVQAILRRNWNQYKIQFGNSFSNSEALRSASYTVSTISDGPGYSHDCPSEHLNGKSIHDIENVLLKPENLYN
T1 sequence (O60894 27-148): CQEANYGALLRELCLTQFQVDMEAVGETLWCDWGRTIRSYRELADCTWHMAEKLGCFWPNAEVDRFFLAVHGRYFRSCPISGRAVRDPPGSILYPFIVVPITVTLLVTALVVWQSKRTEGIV
Procedure: (§1) Data were analyzed using GraphPad Prism versions 7–9 (GraphPad Software Inc., San Diego, CA, Unite States). Concentration-response cAMP data were fitted via non-linear regression using a four-parameter logistic equation. An extra sum-of-squares F-test was conducted to determine whether the Hill slope was equal to one. […] The maximal (Emax) and minimal (Emin) responses were not constrained between independent experiments to obtain the pEC50 value.
(§2) The Schild slope was also constrained to one.

[2] = biological target: T2, human AMY1 receptor (CTR/RAMP1) (Homo sapiens, UniProt O60894+P30988); assay: cAMP assay, antagonism of αCGRP at the human AMY1 receptor in transfected Cos-7 cells; type: cell-based; settings: for pA2, AMY1r: non-lipidated analogues, single antagonist concentration 30 nM, agonist αCGRP, mean ± SEM of three independent experiments, SEM
T2 construct: HA; myc; expressed in transfected cells; host or cells: Cos-7
T2 sequence (P30988 25-474): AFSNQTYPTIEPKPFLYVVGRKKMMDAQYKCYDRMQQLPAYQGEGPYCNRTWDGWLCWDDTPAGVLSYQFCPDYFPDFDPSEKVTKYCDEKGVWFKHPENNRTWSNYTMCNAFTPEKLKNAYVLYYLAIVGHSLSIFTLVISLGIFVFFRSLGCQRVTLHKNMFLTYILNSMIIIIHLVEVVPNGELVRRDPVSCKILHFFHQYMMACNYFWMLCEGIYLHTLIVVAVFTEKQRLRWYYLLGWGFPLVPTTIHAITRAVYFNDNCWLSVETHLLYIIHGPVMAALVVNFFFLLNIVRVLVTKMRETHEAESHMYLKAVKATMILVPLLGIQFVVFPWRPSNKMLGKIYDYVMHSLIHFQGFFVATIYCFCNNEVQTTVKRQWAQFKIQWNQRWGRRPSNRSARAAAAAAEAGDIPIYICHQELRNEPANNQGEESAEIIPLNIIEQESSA
T2 sequence (O60894 27-148): as the sequence (O60894 27-148) above
Procedure: as §1, §2

[3] = system: endogenous CGRP action (capsaicin-induced dermal vasodilation); assay: Capsaicin-induced dermal vasodilation (CIDV), laser Doppler imaging of the mouse ear; type: in vivo, C57BL/6J mice; settings: for effect on CIDV response (antagonist screening): male and female C57BL/6J mice, single s.c. dose 10 min before anesthesia, αCGRP8-37 960 nmol/kg, olcegepant 1150 nmol/kg, K24C-palmitate 320 nmol/kg, capsaicin 60 μg/ear, flux AUC over 15 min vs saline, four to five mice per group; for effect on CIDV response at lower (mass-matched) dose: s.c., flux AUC over 15 min vs matched vehicle group, compared to V8C-palmitate and K24C-palmitate, 4-7 per group
Procedure: (§3) Experimental design is outlined in Figure 1. Male and female C57BL/6J mice were recruited at 10–12 weeks of age at 20–30 g bodyweight. Animals were randomly allocated to each treatment group. Antagonists were diluted from respective stock solutions into 37°C pre-warmed sterile 0.9% saline containing 0.1% BSA and DMSO at a final amount of 3.2%. The vehicle was 0.9% saline supplemented with 0.1% BSA and 3.2% DMSO. Antagonist or vehicle was administered subcutaneously at a volume of 10 ml/kg. The anesthetic was: ketamine at 10 mg/ml and xylazine at 1 mg/ml, dissolved in sterile 0.9% saline. This was administered via the intraperitoneal route at 10 ml/kg and the anesthetized mouse placed onto a heating pad to maintain constant body temperature. The head was positioned for the dorsal region of both ears to be aligned to the LDI2-HIR Laser Doppler Imager (Moor Instruments) above it. The imager scanned 40 cm from the ear at a scan speed of 4 ms/pixel, with a scan area of approximately 11.0 cm × 4.1 cm and 256 × 45 pixels resolution. This provided a scan rate of approximately 1 scan/min for both ears. Both ears were simultaneously scanned for 3 min to generate the baseline blood flow prior to capsaicin-challenge (Figure 1). Guided by earlier research ([Grant et al., 2002]), capsaicin (Sigma-Aldrich, St. Louis, MO, United States) dissolved in absolute ethanol was applied topically to the ear (60 μg/ear; 10 μl on both dorsal and ventral side). On the contralateral ear, ethanol was applied as a negative control. Both ears were then immediately scanned with the Laser Doppler imager for a continuous 15-min period to capture changes in blood flow (Figure 1).
Mice were administered subcutaneously with vehicle or antagonist (Figure 1A). Ten minutes later mice were anesthetized and placed on a heating pad. Ten minutes after anesthesia induction, measurement of dermal blood-flow commenced. Either a single dose of antagonist as specified in the figures was used or a dose-ranging study was conducted. For the dose-ranging study, either hαCGRP8-37 or hαCGRP8-37 V8C-palmitate (V8C-palmitate) at a dose of 320, 960 or 3,200 nmol/kg was used. Doses were selected based on existing literature and our own pilot trials to characterize optimal (and maximal/minimal) effective dose within the bounds of solubility limits ([Saxen et al., 1994]; [Grant et al., 2002]; [Gohin et al., 2015]; [Aubdool et al., 2016]).
Mice were administered subcutaneously with vehicle or either hαCGRP8-37 (960 nmol/kg) or V8C-palmitate (960 nmol/kg) at 10, 20, 30 or 60 min prior to anesthesia and baseline read (Figure 1A). Ten minutes after anesthesia induction, measurement of dermal blood-flow began. To study the time of onset of antagonist activity, a shorter period between treatment administration and capsaicin challenge was utilized (T0) (Figure 1B). Here, mice were anesthetized and placed on the heating pad prior to peptide administration. Immediately after peptide administration, measurement of dermal blood-flow began.
For laser doppler imaging (LDI) scans, mean flux values of the whole scanned ear region for both ethanol (control) and capsaicin-treated ears at each time point (per minute) were analyzed using the MoorLDI Review 6.1 software. Mean flux values were normalized to the mean flux values averaged from the three continuous baseline scans and a time course is generated. Area under the curve (AUC) of the % flux mean after capsaicin application (t ≥ 0) was measured for each animal, grouped and compared between different ears or treatment arms. […] Time courses and time points were compared using repeated measures two-way ANOVA with Bonferonni’s multiple comparisons test.

[4] = Solubility limit of the dosing solution; type: physicochemical; settings: dosing vehicle 0.9% saline with 0.1% BSA and 3.2% DMSO; limited the maximum dose to 320 nmol/kg (10 ml/kg)
Procedure: as §3, with “Guided by earlier research ([Grant et al., 2002]), capsaicin (Sigma-Aldrich, St. Louis, MO, United States) dissolved in absolute ethanol was applied topically to the ear (60 μg/ear; 10 μl on both dorsal and ventral side). On the contralateral ear, ethanol was applied as a negative control. Both ears were then immediately scanned with the Laser Doppler imager for a continuous 15-min period to capture changes in blood flow (Figure 1).” left out

Q: Which results are given for “K24C αCGRP8-37: cysteine-substituted αCGRP8-37 analogue at Lys-24 (VTHRLAGLLSRSGGVVCNNFVPTNVGSKAF-NH2; ends and bridges not checked; UniProt P06881 90-119, looked up, variant K24C)”?
A: pA2, CGRPr [1]: 8.25 ± 0.11; pA2, AMY1r [2]: 7.06 ± 0.15

Q: With “K35C αCGRP8-37: cysteine-substituted αCGRP8-37 analogue at Lys-35” as the compound, how does the “pA2, CGRPr” value [1] read?
A: Its value is 8.85 ± 0.31.

Q: What about the “pA2, AMY1r” value [2] of the same compound?
A: The value was 7.04 ± 0.18.

Q: With `NCCCC[C@H](NC(=O)[C@@H](Cc1cc(Br)c(O)c(Br)c1)NC(=O)N1CCC(N2Cc3ccccc3NC2=O)CC1)C(=O)N1CCN(c2ccncc2)CC1` [olcegepant, reference compound] as the compound, how does the “effect on CIDV response (antagonist screening)” value (“effect … (antagonist screening)” below) [3] read?
A: The value was “attenuated the CIDV response”.

Q: Which results are given for “V8C αCGRP8-37: cysteine-substituted αCGRP8-37 analogue at Val-8 (CTHRLAGLLSRSGGVVKNNFVPTNVGSKAF-NH2; ends and bridges not checked; UniProt P06881 90-119, looked up, variant V8C)”?
A: fold less potent compared to αCGRP8-37 at the CGRP receptor [1]: 25 fold; pA2, CGRPr [1]: 7.23 ± 0.07; pA2, AMY1r [2]: 6.41 ± 0.15

Q: With `CCCCCCCCCCCCCCCC(=O)OCCSC[C@H](N)C(=O)N[C@H](C(=O)N[C@H](C(=O)N[C@@H](Cc1c[nH]cn1)C(=O)N[C@@H](CCCNC(=N)N)C(=O)N[C@@H](CC(C)C)C(=O)N[C@@H](C)C(=O)NCC(=O)N[C@@H](CC(C)C)C(=O)N[C@@H](CC(C)C)C(=O)N[C@@H](CO)C(=O)N[C@@H](CCCNC(=N)N)C(=O)N[C@@H](CO)C(=O)NCC(=O)NCC(=O)N[C@H](C(=O)N[C@H](C(=O)N[C@@H](CCCCN)C(=O)N[C@@H](CC(N)=O)C(=O)N[C@@H](CC(N)=O)C(=O)N[C@@H](Cc1ccccc1)C(=O)N[C@H](C(=O)N1CCC[C@H]1C(=O)N[C@H](C(=O)N[C@@H](CC(N)=O)C(=O)N[C@H](C(=O)NCC(=O)N[C@@H](CO)C(=O)N[C@@H](CCCCN)C(=O)N[C@@H](C)C(=O)N[C@@H](Cc1ccccc1)C(N)=O)C(C)C)[C@@H](C)O)C(C)C)C(C)C)C(C)C)[C@@H](C)O)C(C)C` [αCGRP7-37-palmitate] as the compound, how does the “effect on CIDV response at lower (mass-matched) dose” value ([3]; male mice) read?
A: The value was “weaker antagonist activities”.

Q: Which “effect … (antagonist screening)” value [3] does the source give for `CCCCCCCCCCCCCCCC(=O)OCCSC[C@H](N)C(=O)N[C@H](C(=O)N[C@@H](Cc1c[nH]cn1)C(=O)N[C@@H](CCCNC(=N)N)C(=O)N[C@@H](CC(C)C)C(=O)N[C@@H](C)C(=O)NCC(=O)N[C@@H](CC(C)C)C(=O)N[C@@H](CC(C)C)C(=O)N[C@@H](CO)C(=O)N[C@@H](CCCNC(=N)N)C(=O)N[C@@H](CO)C(=O)NCC(=O)NCC(=O)N[C@H](C(=O)N[C@H](C(=O)N[C@@H](CCCCN)C(=O)N[C@@H](CC(N)=O)C(=O)N[C@@H](CC(N)=O)C(=O)N[C@@H](Cc1ccccc1)C(=O)N[C@H](C(=O)N1CCC[C@H]1C(=O)N[C@H](C(=O)N[C@@H](CC(N)=O)C(=O)N[C@H](C(=O)NCC(=O)N[C@@H](CO)C(=O)N[C@@H](CCCCN)C(=O)N[C@@H](C)C(=O)N[C@@H](Cc1ccccc1)C(N)=O)C(C)C)[C@@H](C)O)C(C)C)C(C)C)C(C)C)[C@@H](C)O` [V8C-palmitate] here?
A: The value was “attenuated the CIDV response”.

Q: What about the “effect on CIDV, dose ranging, 320 nmol/kg” value ([3]; male mice, 320 nmol/kg s.c. 10 min before anesthesia, six mice per group) of the same compound?
A: The value was “did not have a significant antagonist effect”.

Q: And the “effect on CIDV, dose ranging, 960 nmol/kg” value ([3]; male mice, 960 nmol/kg s.c. 10 min before anesthesia, six mice per group)?
A: Its value is “significantly reduced CIDV”.

Q: What about the “effect on CIDV, dose-duration study, T-10” value ([3]; male mice, 960 nmol/kg s.c. 10 min prior to anesthesia and capsaicin application, six mice per group) of the same compound?
A: The value was “attenuation evident only at T-10”.

Q: And the “effect on CIDV, dose-duration study, T-60” value ([3]; male mice, 960 nmol/kg s.c. 60 min prior to anesthesia and capsaicin application, six mice per group)?
A: The value was “disappearing by the T-60 timepoint”.

Q: What about the “effect on CIDV, dose ranging, 3,200 nmol/kg” value ([3]; male mice, 3,200 nmol/kg s.c. 10 min before anesthesia, six mice per group) of the same compound?
A: Its value is “significant antagonist effect”.

Q: With “βCGRP8-37: human βCGRP fragment 8-37, synthesized in house” as the compound, how does the “effect on CIDV response at lower (mass-matched) dose” value ([3]; male mice) read?
A: Its value is “weaker antagonist activities”.

Q: For `CCCCCCCCCCCCCCCC(=O)OCCSC[C@H](NC(=O)[C@@H](NC(=O)[C@@H](NC(=O)CNC(=O)CNC(=O)[C@H](CO)NC(=O)[C@H](CCCNC(=N)N)NC(=O)[C@H](CO)NC(=O)[C@H](CC(C)C)NC(=O)[C@H](CC(C)C)NC(=O)CNC(=O)[C@H](C)NC(=O)[C@H](CC(C)C)NC(=O)[C@H](CCCNC(=N)N)NC(=O)[C@H](Cc1c[nH]cn1)NC(=O)[C@@H](NC(=O)[C@@H](N)C(C)C)[C@@H](C)O)C(C)C)C(C)C)C(=O)N[C@@H](CC(N)=O)C(=O)N[C@@H](CC(N)=O)C(=O)N[C@@H](Cc1ccccc1)C(=O)N[C@H](C(=O)N1CCC[C@H]1C(=O)N[C@H](C(=O)N[C@@H](CC(N)=O)C(=O)N[C@H](C(=O)NCC(=O)N[C@@H](CO)C(=O)N[C@@H](CCCCN)C(=O)N[C@@H](C)C(=O)N[C@@H](Cc1ccccc1)C(N)=O)C(C)C)[C@@H](C)O)C(C)C` [K24C-palmitate] (H-VTHRLAGLLSRSGGVVC(Ethyl(2-palmitoyloxy))NNFVPTNVGSKAF-NH2; N-terminus assumed), which “effect … (antagonist screening)” value [3] is on record?
A: The value was “attenuated the CIDV response”.

Q: And the solubility [4]?
A: The solubility was “limited solubility at high concentrations”.

Q: For “αCGRP7-37: truncated peptide antagonist which retains the native Cys-7 residue (CVTHRLAGLLSRSGGVVKNNFVPTNVGSKAF; ends and bridges not checked; UniProt P06881 89-119, looked up, fragment)”, which “fold less potent compared to αCGRP8-37 at the CGRP receptor” value [1] is on record?
A: The value was 4.5 fold.

Q: What about the “pA2, CGRPr” value [1] of the same compound?
A: Its value is 7.98 ± 0.09.

Q: What about the “pA2, AMY1r” value [2] of the same compound?
A: Its value is 7.10 ± 0.17.

Q: Which “fold reduction of antagonist activity compared to hαCGRP8-37 at CGRP receptor” value ([1]; from pKB values) does the source give for `CCCCCCCCCCCCCCCC(=O)OCCSC[C@H](NC(=O)[C@H](CO)NC(=O)CNC(=O)[C@@H](NC(=O)[C@H](CC(N)=O)NC(=O)[C@@H](NC(=O)[C@@H]1CCCN1C(=O)[C@@H](NC(=O)[C@H](Cc1ccccc1)NC(=O)[C@H](CC(N)=O)NC(=O)[C@H](CC(N)=O)NC(=O)[C@H](CCCCN)NC(=O)[C@@H](NC(=O)[C@@H](NC(=O)CNC(=O)CNC(=O)[C@H](CO)NC(=O)[C@H](CCCNC(=N)N)NC(=O)[C@H](CO)NC(=O)[C@H](CC(C)C)NC(=O)[C@H](CC(C)C)NC(=O)CNC(=O)[C@H](C)NC(=O)[C@H](CC(C)C)NC(=O)[C@H](CCCNC(=N)N)NC(=O)[C@H](Cc1c[nH]cn1)NC(=O)[C@@H](NC(=O)[C@@H](N)C(C)C)[C@@H](C)O)C(C)C)C(C)C)C(C)C)[C@@H](C)O)C(C)C)C(=O)N[C@@H](C)C(=O)N[C@@H](Cc1ccccc1)C(N)=O` [K35C-palmitate] here?
A: Its value is roughly 70 fold.

Q: And the “fold reduction of antagonist activity compared to hαCGRP8-37 at AMY1 receptor” value ([2]; from pKB values)?
A: The value was roughly 12 fold.

— PMC8942775, “Lipidated Calcitonin Gene-Related Peptide (CGRP) Peptide Antagonists Retain CGRP Receptor Activity and Attenuate CGRP Action In Vivo” (Frontiers in Pharmacology, 2022)
